Entries after “also recorded” stand apart in the source; their conditions may differ. Like-named read-outs stand apart in the source and are kept apart here.
Legend:
mTORC1 = assay: Western blot of mTORC1 signaling (pS6K, pS6, p4EBP1); type: cell-based; settings: for sustained S6 phosphorylation: HCC1954 cells, presence or absence of BYL719 (1 μM)
Excerpt: (§2) For western blot analysis proteins were extracted in RIPA buffer supplemented with protease and phosphatase inhibitors (Roche). Protein lysates were separated using SDS-PAGE gels and transferred to a PVDF membrane. Then, membranes were probed using specific antibodies. PDK1, pAKT (S473), pAKT (T308), pS6K (T389), pS6 (S240/4), pS6 (235/6), p4EBP1 (S65), PARP, Actin, pRSK (S227), cleaved Caspase 3, pFOXO1/3 (T24/T32), SGK1, SGK2, SGK3, pNDRG1 (T346), NDRG1, Flag, HA, and phospho-RXRXX(S/T) (SEQ ID NO: 1) were from Cell Signaling Technology (CST).

pNDRG1 (T346) = assay: Western blot of NDRG1 phosphorylation (T346); type: cell-based
Procedure: A) SGK1 mRNA levels in breast cancer cell lines sensitive or resistant to BYL719 (n=27). B) SGK1 mRNA levels in PIK3CA-mutant breast cancer cell lines sensitive or resistant to BYL719. C) Western blot of SGK1, SGK2, SGK3 and phosphorylated NDRG1 in a panel of PIK3CA—mutant breast cancer cell lines sensitive or resistant to BYL719. D) Western blot for NDRG1 and phosphorylated NDRG1 (T346) in BYL719-sensitive and -resistant breast cancer cell lines treated with BYL719 (1 μM) for 4 h. […] P values are calculated using Student's t-test. Error bars are ±SEM.
A) Dose-response curves from MDA-MB-361 cells transduced with pLenti7.3-LacZ or pLenti7.3-SGK1 (Δ60, S422D) treated with increasing concentrations of BYL719 for 6 days. B) Western blot analysis of LacZ and SGK1 MDA-MB-361 cells treated with BYL719 (1 μM) for 4 h. […] The DFG motif amino acids are indicated (D240, F241, G242). […] Hydrogen bonds are shown as dotted lines. […] L) IHC analysis of tumors from K collected at the end of the experiment. M) Top panel: growth curves of HCC1954 cells stably expressing doxycycline-inducible control (REN) or SGK1 knockdown treated with increasing concentrations of BYL719 for 6 days. Bottom panel: Western blot analysis of GFP-sorted control (REN) and SGK1 shRNA cells treated with BYL719 (1 μM) for 4 h. P values are calculated using Student's t-test. Error bars are ±SEM.
(§1) Then, membranes were probed using specific antibodies.

TSC2 (S939) = assay: Western blot of phosphorylated TSC2 (S939); type: cell-based; settings: HCC1954, PD0325901 1 μM, GSK1120212 50 nM, ± BYL719, 4 h
pRSK2 (S227) = assay: Western blot of phosphorylated RSK2 (S227), PDK1 target; type: cell-based; settings: HCC1954 and JIMT1, 1 μM
Procedure: A) Dose-response curves from HCC1954 or JIMT1 shGFP and shPDK1 cells treated with BYL719 for 6 days. […] Staurosporine is used as a positive control (1 μM; 4 h). E) HCC1954 shGFP and shPDK1 in vivo xenograft treated with Vehicle or BYL719 (n=10/arm). F) IHC analysis of tumors from E collected at the end of the experiment. […] Staurosporine is used as a positive control (1 μM, 4 h). […] L) IHC analysis of tumors from K collected at the end of the experiment. M, N) JIMT1 in vivo xenograft tested as described in (K) and (L) for HCC1954 in vivo xenograft. P values are calculated using Student's t-test. Error bars are ±SEM.
as §1

SGK3 = SGK3 (Homo sapiens, UniProt Q96BR1); assay: in vitro SGK3 kinase activity assay; type: biochemical
CaCO2 cells = settings: cited from earlier work
S6K signaling [1] = settings: up to 30 μM, 4 h, TSC2 KO mouse fibroblasts
Procedure: (§3) Recombinant GST-S6 was used as a substrate and phosphorylated S6 (S235/6) antibody was used for the detection of phosphorylated substrate by Western blot. […] Everolimus was used as a positive control at 200 nM. Error bars are ±SEM. […] Quantification of the m^7GTP-precipitated proteins is indicated in fold change. AZD8055 is used as a control at 1 μM). […] Error bars are ±SEM.
as §2

S6K signaling [2] = assay: Western blot of S6K targets in fibroblasts of a TSC2-null lymphangioleiomyomatosis patient; settings: up to 30 μM, 4 h, TSC2-null LAM patient fibroblasts
Procedure: as §3, §2

mTOR = mTOR (Homo sapiens, UniProt P42345); settings: read-out: IC50, mTOR; 4EBP1 as substrate
SGK2 = SGK2 (Homo sapiens, UniProt Q9HBY8); assay: in vitro SGK2 kinase activity assay; type: biochemical
S6K = S6K (Homo sapiens, UniProt P23443); assay: selectivity screening, panel of 140 kinases; settings: 1 μM
Procedure: (§4) IC50 value is indicated. […] Recombinant GST-S6 was used as a substrate and phosphorylated S6 (S235/6) antibody was used for the detection of phosphorylated substrate by Western blot. IC50 value is indicated. […] Everolimus was used as a positive control at 200 nM. Error bars are ±SEM. […] Quantification of the m^7GTP-precipitated proteins is indicated in fold change. AZD8055 is used as a control at 1 μM). […] Error bars are ±SEM.

PDK1 = PDK1 (Homo sapiens, UniProt O15530); assay: selectivity screening, panel of 140 kinases; settings: 1 μM
Procedure: as §4

HCC1954 xenografts = assay: HCC1954 in vivo xenograft; design: species or system mice; settings: HCC1954 xenografts, end of the experiment
Procedure: Animals were maintained and treated in accordance with Institutional Guidelines of Memorial Sloan Kettering Cancer Center (Protocol number 12-10-019). 5×10^6 cells in 1:1 PBS/Matrigel (Corning) were injected subcutaneously into six-week-old female athymic Foxn1^nu nude mice.
When tumors reached a volume of ˜150 mm^3 mice were randomized, treated, and tumors were measured twice a week during a month. At least 10 tumors per group were used in all the studies. […] Tumors were harvested at the end of the experiment three hours after the last dosage, fixed in 4% formaldehyde in PBS, and paraffin-embedded. […] Primary staining was followed by 60 minutes incubation with biotinylated goat anti-rabbit IgG (Vector labs) 1:200. Blocker D, Streptavidin-HRP and DAB detection kit (Ventana Medical Systems) were used according to the manufacturer instructions.

S6K (ΔCT T389E) = assay: S6K kinase assay in 293T cells overexpressing constitutively active S6K; type: cell-based
S6K1 = assay: recombinant in vitro kinase assay of S6K ([…] peptide substrate); type: biochemical
PKC = assay: selectivity screening, panel of 140 kinases; settings: 1 μM
Procedure: as §4

RSK = assay: selectivity screening, panel of 140 kinases; settings: 1 μM
Procedure: as §4

SGK1 = SGK1 (Homo sapiens, UniProt O00141); assay: ATP-competition assay; settings: ATP at 100, 250, 350 and 500 μM
Excerpt: Recombinant GST-S6 was used as a substrate and phosphorylated S6 (S235/6) antibody was used for the detection of phosphorylated substrate by Western blot.

AKT1 = AKT1 (Homo sapiens, UniProt P31749); assay: selectivity screening, panel of 140 kinases; settings: 1 μM
Sequence of AKT1 (P31749 whole entry): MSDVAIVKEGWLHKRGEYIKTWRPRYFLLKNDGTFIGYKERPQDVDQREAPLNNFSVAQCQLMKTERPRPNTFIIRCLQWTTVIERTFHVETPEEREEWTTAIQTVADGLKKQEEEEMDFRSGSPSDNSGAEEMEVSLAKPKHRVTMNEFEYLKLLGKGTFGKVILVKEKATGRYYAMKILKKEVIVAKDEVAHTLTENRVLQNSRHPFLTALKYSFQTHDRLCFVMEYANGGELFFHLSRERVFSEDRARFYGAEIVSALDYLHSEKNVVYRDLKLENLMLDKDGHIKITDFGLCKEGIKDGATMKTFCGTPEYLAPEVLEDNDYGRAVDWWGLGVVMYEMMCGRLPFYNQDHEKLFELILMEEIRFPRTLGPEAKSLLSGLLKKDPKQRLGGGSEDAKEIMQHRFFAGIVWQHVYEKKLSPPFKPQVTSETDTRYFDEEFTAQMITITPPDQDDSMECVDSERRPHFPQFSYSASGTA
Procedure: as §4

Sequence of SGK1 (O00141 whole entry): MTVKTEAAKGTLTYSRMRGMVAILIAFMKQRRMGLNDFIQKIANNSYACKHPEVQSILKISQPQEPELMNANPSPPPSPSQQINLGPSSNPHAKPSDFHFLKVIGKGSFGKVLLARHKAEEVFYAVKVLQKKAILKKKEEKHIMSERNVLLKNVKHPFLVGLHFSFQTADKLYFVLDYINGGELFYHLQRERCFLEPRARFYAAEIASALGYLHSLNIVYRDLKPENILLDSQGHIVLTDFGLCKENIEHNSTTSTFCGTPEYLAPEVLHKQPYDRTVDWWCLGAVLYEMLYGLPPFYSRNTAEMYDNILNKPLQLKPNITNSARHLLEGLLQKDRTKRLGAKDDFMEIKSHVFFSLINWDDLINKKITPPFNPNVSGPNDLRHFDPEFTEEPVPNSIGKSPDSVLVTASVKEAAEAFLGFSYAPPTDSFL
Sequence of SGK2 (Q9HBY8 whole entry): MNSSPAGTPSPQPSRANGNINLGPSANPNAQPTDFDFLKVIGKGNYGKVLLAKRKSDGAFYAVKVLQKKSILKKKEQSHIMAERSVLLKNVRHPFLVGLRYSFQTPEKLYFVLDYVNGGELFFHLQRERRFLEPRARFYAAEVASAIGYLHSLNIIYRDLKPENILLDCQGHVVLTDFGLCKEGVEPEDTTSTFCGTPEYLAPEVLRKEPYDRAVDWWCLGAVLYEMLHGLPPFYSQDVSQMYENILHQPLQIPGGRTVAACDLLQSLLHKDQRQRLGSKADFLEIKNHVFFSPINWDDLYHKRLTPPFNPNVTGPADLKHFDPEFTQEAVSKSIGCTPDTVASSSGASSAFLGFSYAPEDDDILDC
Sequence of PDK1 (O15530 whole entry): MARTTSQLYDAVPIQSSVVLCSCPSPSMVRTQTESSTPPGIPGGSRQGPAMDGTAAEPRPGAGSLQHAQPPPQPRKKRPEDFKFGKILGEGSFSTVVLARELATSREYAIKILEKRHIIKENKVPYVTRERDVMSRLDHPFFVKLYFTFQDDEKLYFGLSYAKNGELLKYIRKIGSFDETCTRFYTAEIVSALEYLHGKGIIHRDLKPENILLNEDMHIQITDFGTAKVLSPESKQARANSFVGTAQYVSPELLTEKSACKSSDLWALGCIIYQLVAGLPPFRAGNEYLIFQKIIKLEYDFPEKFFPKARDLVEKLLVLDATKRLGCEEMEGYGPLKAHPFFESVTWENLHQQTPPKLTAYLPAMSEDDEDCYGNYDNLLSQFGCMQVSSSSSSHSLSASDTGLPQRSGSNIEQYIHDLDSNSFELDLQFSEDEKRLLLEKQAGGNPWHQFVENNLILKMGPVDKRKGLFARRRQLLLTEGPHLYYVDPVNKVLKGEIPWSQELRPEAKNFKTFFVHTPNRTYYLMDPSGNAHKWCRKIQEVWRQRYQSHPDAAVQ
Sequence of S6K (P23443 whole entry): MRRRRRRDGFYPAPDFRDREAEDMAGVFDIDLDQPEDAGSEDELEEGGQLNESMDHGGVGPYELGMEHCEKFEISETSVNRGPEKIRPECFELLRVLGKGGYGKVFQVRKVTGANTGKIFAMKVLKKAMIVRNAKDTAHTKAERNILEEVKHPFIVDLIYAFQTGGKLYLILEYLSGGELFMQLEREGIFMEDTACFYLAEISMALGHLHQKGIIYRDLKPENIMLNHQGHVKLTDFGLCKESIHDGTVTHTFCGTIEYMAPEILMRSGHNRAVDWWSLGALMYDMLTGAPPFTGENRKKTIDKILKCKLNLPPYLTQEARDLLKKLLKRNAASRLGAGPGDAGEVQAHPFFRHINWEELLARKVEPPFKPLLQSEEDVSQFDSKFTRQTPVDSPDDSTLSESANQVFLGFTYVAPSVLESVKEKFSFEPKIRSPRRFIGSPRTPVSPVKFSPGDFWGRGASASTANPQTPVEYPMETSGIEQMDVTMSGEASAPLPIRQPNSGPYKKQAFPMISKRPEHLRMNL
Sequence of SGK3 (Q96BR1 whole entry): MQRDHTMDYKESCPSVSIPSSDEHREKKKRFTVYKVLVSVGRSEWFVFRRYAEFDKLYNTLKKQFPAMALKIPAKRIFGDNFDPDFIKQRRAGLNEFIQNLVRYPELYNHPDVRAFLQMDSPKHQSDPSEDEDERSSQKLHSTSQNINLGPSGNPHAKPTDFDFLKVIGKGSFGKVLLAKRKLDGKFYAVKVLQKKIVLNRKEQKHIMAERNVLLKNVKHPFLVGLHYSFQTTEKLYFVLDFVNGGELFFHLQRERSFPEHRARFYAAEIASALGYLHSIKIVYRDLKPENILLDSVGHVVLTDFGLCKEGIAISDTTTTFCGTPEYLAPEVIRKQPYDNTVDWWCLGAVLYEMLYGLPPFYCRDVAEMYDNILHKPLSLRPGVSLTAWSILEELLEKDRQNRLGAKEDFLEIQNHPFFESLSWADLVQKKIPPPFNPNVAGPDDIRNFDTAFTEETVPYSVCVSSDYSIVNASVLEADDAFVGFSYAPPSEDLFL

Which “sustained S6 phosphorylation” value (mTORC1) does the source give for `O=CC[C@@H](O)[C@H](O)[C@H](O)CO` [2-deoxyglucose] here?
Its value is “unable to rescue the sustained phosphorylation of S6”.

With `N#Cc1c(O)c2c(-c3ccc(-c4ccccc4O)cc3)csc2[nH]c1=O` [A769662] as the molecule, how does the “sustained S6 phosphorylation” value (mTORC1) read?
The value was “unable to rescue the sustained phosphorylation of S6”.

For `COc1ccc(-c2ccc3c(N4CCOC[C@@H]4C)nc(N4CCOC[C@@H]4C)nc3n2)cc1CO` [AZD8055], which “pFOXO3 (T32) and pNDRG1 (T346) levels” value (pNDRG1 (T346); HCC1954, increasing concentrations, single agent) is on record?
The value was “did not reduce the levels of the substrates pFOXO3 (T32) and pNDRG1 (T346)”.

For `CC(=O)Nc1cccc(-n2c(=O)n(C3CC3)c(=O)c3c(Nc4ccc(I)cc4F)n(C)c(=O)c(C)c32)c1` [GSK1120212], which “TSC2 phosphorylation at S939 (or mTORC1 downstream signaling)” value (TSC2 (S939)) is on record?
The value was “did not detect changes in TSC2 phosphorylation at S939”.

Which “pRSK2 (S227)” value (pRSK2 (S227)) does the source give for `CNc1nc(-c2ccc3c(N)n[nH]c3c2)cc(N2C[C@@H](C(=O)NC3CCCCC3)CC[C@H]2C)n1` [GSK2334470] here?
Its value is “appreciably reduced; also recorded: inhibited when cells are treated with GSK2334470 alone or in combination”.

What about the “phosphorylation of FOXO3 and NDRG1, added to AZD8055” value (pNDRG1 (T346); HCC1954, GSK2334470 1 μM plus AZD8055) of the same molecule?
The value was “marked decrease in the phosphorylation of both FOXO3 and NDRG1”.

Which “TSC2 phosphorylation at S939 (or mTORC1 downstream signaling)” value (TSC2 (S939)) does the source give for `O=C(NOC[C@H](O)CO)c1ccc(F)c(F)c1Nc1ccc(I)cc1F` [PD0325901] here?
The value was “did not detect changes in TSC2 phosphorylation at S939”.

With `Nc1n[nH]c2nc(-c3ccc(NS(=O)(=O)c4cccc(Cl)c4Cl)cc3)cnc12` [SGK1-inh] as the molecule, how does the IC50 (SGK3) read?
The IC50 was 0.59 µM.

And the permeability (CaCO2 cells)?
Its permeability is 13.3 ×10⁻⁶ cm/s.

And the “S6K signaling: pS6 (S235/6), pS6 (S240/4), pmTOR (S2448)” value (S6K signaling [1])?
The value was “not able to reduce S6K signaling”.

What about the “S6K signaling: pS6 (S235/6), pS6 (S240/4), pmTOR (S2448)” value (S6K signaling [2]) of the same molecule?
The value was “not able to reduce S6K signaling”.

What about the IC50 (mTOR) of the same molecule?
The IC50 was over 5 µM.

And the IC50 (SGK2)?
Its IC50 is 0.0028 µM.

What about the “activity against S6K” value (S6K) of the same molecule?
The value was “inhibited”.

What about the “activity against PDK1” value (PDK1) of the same molecule?
The value was “no activity”.

And the mTORC1 signaling (mTORC1; BYL719-resistant cells (HCC1954, JIMT1), 4 h, BYL719 1 μM, GSK2334470 1 μM, SGK1-inh 10 μM)?
The mTORC1 signaling was “some activity towards S6K signaling”.

And the “pS6 (S240/4) and 4EBP1 (T37/46) in tumors, IHC” value (HCC1954 xenografts)?
Its value is “remained elevated”.

And the IC50 (S6K (ΔCT T389E); 293T cells, HA-S6K (ΔCT T389E), GST-S6 substrate, read-out: IC50, S6K at the cellular level)?
The IC50 was about 20 µM.

What about the “concentrations below which there is no activity towards S6K” value (S6K (ΔCT T389E); conclusion from cellular S6K assays) of the same molecule?
Its value is 20 to 30 µM.

What about the IC50 (S6K1) of the same molecule?
The IC50 was 0.033 µM.

And the “activity against PKC” value (PKC)?
The value was “no activity”.

And the “activity against RSK” value (RSK)?
Its value is “no activity”.

And the “appropriate concentration to inhibit endogenous SGK1 (NDRG1 phosphorylation)” value (pNDRG1 (T346); HCC1954 cells, 4 hours, in the presence of BYL719 (1 μM))?
Its value is 10 µM.

And the “effect of increasing ATP on potency” value (SGK1)?
Its value is “decreased the potency”.

What about the “activity against AKT1” value (AKT1) of the same molecule?
The value was “no activity”.
